Assay results published in ChEMBL document CHEMBL1201862, “PubChem BioAssay data set” (2004).
Several values for one entry are separate records, joined by “and”; a condition that tells them apart may be missing. Equal values may be shown once.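 Five concentrations, 48 hours, 96-well plates. GI50 = concentration required for 50% inhibition of growth.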 Activity calls are given as the source filed them. Cut-off read from the data, not from the text of the source: active = GI50 up to about 1.1 µM and inactive = higher.

Experiments:
Assay in all cases: NCI tumour cell line growth inhibition, 48 h
[1] = system: A549
[2] = system: ACHN
[3] = system: BT-549
[4] = system: CCRF-CEM
[5] = system: COLO 205
[6] = system: DU-145
[7] = system: EKVX
[8] = system: HCT-116
[9] = system: HL-60
[10] = system: HOP-62
[11] = system: HOP-92
[12] = system: IGROV-1
[13] = system: M14
[14] = system: MCF7
[15] = system: MDA-N
[16] = system: MOLT-4
[17] = system: Malme-3M
[18] = system: NCI-H23
[19] = system: NCI-H460
[20] = system: OVCAR-3
[21] = system: OVCAR-5
[22] = system: OVCAR-8
[23] = system: SF-268
[24] = system: SK-MEL-28
[25] = system: SK-MEL-2
[26] = system: SK-MEL-5
[27] = system: SK-OV-3
[28] = system: SN12C
[29] = system: SR
[30] = system: U-251
[31] = system: UACC-257
[32] = system: UACC-62
[33] = system: UO-31
[34] = system: 786-0
[35] = system: A498
[36] = system: HCC 2998
[37] = system: HCT-15
[38] = system: HT-29
[39] = system: K562
[40] = system: MDA-MB-231
[41] = system: MDA-MB-435
[42] = system: NCI-H226
[43] = system: NCI/ADR-RES
[44] = system: OVCAR-4
[45] = system: PC-3
[46] = system: RPMI-8226
[47] = system: SF-295
[48] = system: SNB-19
[49] = system: SNB-75
[50] = system: SW-620
[51] = system: T47D
[52] = system: TK-10
[53] = system: LOX IMVI
[54] = system: RXF 393
[55] = system: SF-539

CC1(C)[C@H](O)CC[C@]2(C)C3=CC[C@@]4(C)[C@@H]5C[C@](C)(CO)CC[C@]5(C)CC[C@]4(C)C3=CC[C@@H]12
GI50 [1]: 1.75 µM (inactive)
GI50 [2]: 2.13 µM (inactive)
GI50 [3]: > 100 µM (inactive)
GI50 [4]: 1.63 µM (inactive)
GI50 [5]: 3.23 µM (inactive)
GI50 [6]: > 100 µM (inactive)
GI50 [7]: > 100 µM (inactive)
GI50 [8]: 2.01 µM (inactive)
GI50 [9]: > 100 µM (inactive)
GI50 [10]: > 100 µM (inactive)
GI50 [11]: > 100 µM (inactive)
GI50 [12]: > 100 µM (inactive)
GI50 [13]: > 100 µM (inactive)
GI50 [14]: > 100 µM (inactive)
GI50 [15]: > 100 µM (inactive)
GI50 [16]: > 100 µM (inactive)
GI50 [17]: > 100 µM (inactive)
GI50 [18]: > 100 µM (inactive)
GI50 [19]: 1.91 µM (inactive)
GI50 [20]: 1.79 µM (inactive)
GI50 [21]: > 100 µM (inactive)
GI50 [22]: 2.07 µM (inactive)
GI50 [23]: > 100 µM (inactive)
GI50 [24]: > 100 µM (inactive)
GI50 [25]: > 100 µM (inactive)
GI50 [26]: > 100 µM (inactive)
GI50 [27]: > 100 µM (inactive)
GI50 [28]: 2.1 µM (inactive)
GI50 [29]: 1.75 µM (inactive)
GI50 [30]: 1.84 µM (inactive)
GI50 [31]: > 100 µM (inactive)
GI50 [32]: > 100 µM (inactive)
GI50 [33]: 1.98 µM (inactive)

Cc1cc(O)c2c(c1)C(C1OC(CO)C(O)C(O)C1O)c1cc(O)cc(O)c1C2=O (stereo not given)
GI50 [34]: > 100 µM (inactive)
GI50 [35]: > 100 µM (inactive)
GI50 [1]: > 100 µM (inactive)
GI50 [2]: > 100 µM (inactive)
GI50 [3]: > 100 µM (inactive)
GI50 [4]: > 100 µM (inactive)
GI50 [5]: > 100 µM (inactive)
GI50 [6]: > 100 µM (inactive)
GI50 [7]: > 100 µM (inactive)
GI50 [36]: > 100 µM (inactive)
GI50 [8]: > 100 µM (inactive)
GI50 [37]: > 100 µM
GI50 [9]: > 100 µM (inactive)
GI50 [10]: > 100 µM (inactive)
GI50 [11]: > 100 µM (inactive)
GI50 [38]: > 100 µM (inactive)
GI50 [12]: > 100 µM (inactive)
GI50 [39]: > 100 µM (inactive)
GI50 [13]: > 100 µM (inactive)
GI50 [14]: > 100 µM (inactive)
GI50 [40]: > 100 µM (inactive)
GI50 [41]: > 100 µM (inactive)
GI50 [15]: > 100 µM (inactive)
GI50 [16]: > 100 µM (inactive)
GI50 [17]: > 100 µM (inactive)
GI50 [42]: > 100 µM (inactive)
GI50 [18]: > 100 µM (inactive)
GI50 [19]: > 100 µM (inactive)
GI50 [43]: > 100 µM (inactive)
GI50 [20]: > 100 µM (inactive)
GI50 [44]: > 100 µM (inactive)
GI50 [21]: > 100 µM (inactive)
GI50 [22]: > 100 µM (inactive)
GI50 [45]: > 100 µM (inactive)
GI50 [46]: > 100 µM (inactive)
GI50 [23]: > 100 µM (inactive)
GI50 [47]: > 100 µM (inactive)
GI50 [24]: > 100 µM (inactive)
GI50 [26]: > 100 µM (inactive)
GI50 [27]: > 100 µM (inactive)
GI50 [28]: > 100 µM (inactive)
GI50 [48]: > 100 µM (inactive)
GI50 [49]: > 100 µM (inactive)
GI50 [29]: > 100 µM (inactive)
GI50 [50]: > 100 µM (inactive)
GI50 [51]: > 100 µM (inactive)
GI50 [52]: > 100 µM (inactive)
GI50 [30]: > 100 µM (inactive)
GI50 [31]: > 100 µM (inactive)
GI50 [32]: > 100 µM (inactive)
GI50 [33]: > 100 µM (inactive)

COC(=O)CCC(C)[C@H]1CCC2C3C(C[C@H](OC(C)=O)[C@@]21C)[C@@]1(C)CCC2(C[C@H]1C[C@H]3OC(C)=O)OOC1(CCC(C)CC1)OO2 (stereo not given in full)
GI50 [35]: > 100 µM (inactive)
GI50 [2]: 10.1 µM (inactive) and 6.9 µM (inactive)
GI50 [4]: 6.38 µM (inactive) and 4.59 µM (inactive)
GI50 [36]: 51.3 µM (inactive)
GI50 [8]: 5.41 µM (inactive) and 2.77 µM (inactive)
GI50 [38]: 50.5 µM (inactive) and 55.7 µM (inactive)
GI50 [53]: 7.8 µM (inactive) and 5.15 µM (inactive)
GI50 [13]: 32.4 µM (inactive) and 18.2 µM (inactive)
GI50 [40]: 14 µM (inactive) and 20.2 µM (inactive)
GI50 [15]: 27.4 µM (inactive) and 15.7 µM (inactive)
GI50 [17]: 9.51 µM (inactive) and 17.9 µM (inactive)
GI50 [42]: 56.6 µM (inactive) and 31.8 µM (inactive)
GI50 [43]: > 100 µM (inactive) and 67.9 µM (inactive)
GI50 [20]: 7.1 µM (inactive) and 6.27 µM (inactive)
GI50 [21]: > 100 µM (inactive)
GI50 [54]: 72.3 µM (inactive)
GI50 [55]: > 100 µM (inactive) and 58.6 µM (inactive)
GI50 [24]: > 100 µM (inactive)
GI50 [26]: 15.7 µM (inactive) and 9.79 µM (inactive)
GI50 [27]: > 100 µM (inactive)
GI50 [28]: 34 µM (inactive) and 33.4 µM (inactive)
GI50 [48]: 75 µM (inactive)
GI50 [29]: 4.55 µM (inactive) and 2.46 µM (inactive)
GI50 [51]: 10.5 µM (inactive)
GI50 [30]: 9.16 µM (inactive) and 5.16 µM (inactive)
GI50 [32]: < 0.01 µM (active)
